What was measured:
[1] = test system: MEK-ERK1/2 signaling pathway; assay: Kynurenine-stimulated MMP-1 expression in dermal fibroblasts with MEK/ERK1/2 phosphorylation inhibitors; type: cell-based, human; details: 100 μg/ml kynurenine
Method: Cells were harvested by Trypsin/EDTA and lysed with cell lysis buffer containing 50 mM Tris-HCl (pH7.40), 150 mM NaCl, 10 mM EDTA, 5 mM EGTA, 1% TritonX-100™, 0.5% Igepal CA-630, 0.025% NaN3 and protease inhibitor cocktail (Sigma™). Cell debris was removed by centrifugation at 20,000×g for 10 minutes. The protein concentration in supernatant was determined using the MicroBCA™ method (Pierce™, Rockford, Ill.). Proteins in supernatant were mixed with protein sample loading buffer (final concentration: 60 mM Tris-HCl (pH 6.80), 2% SDS, 10% glycerol, 1.5% β-mercaptoethanol, 0.002% bromophenol blue) and size fractioned by 10% of SDS-polyacrylamide gel. After proteins were transferred onto nitrocellulose membrane by iBlot™ (Invitrogen Life Technologies™), non-specific binding were blocked with phosphate buffer saline twenty 20 (PBS-T) containing 5% skim milk for 1 hour. The membrane was then incubated with primary antibody overnight. After incubation with a secondary antibody for 1 hour, protein bands were visualized by an enhanced chemiluminescence (ECL™) detection system (Santa Cruz Biotechnology™, Santa Cruz, Calif.). […]

MMP-1 = MMP-1 expression in human dermal fibroblasts, Western blot; type: cell-based
Method: Cells were then harvested after 48 hours and western blot analysis was performed.
Cells were harvested by Trypsin/EDTA and lysed with cell lysis buffer containing 50 mM Tris-HCl (pH7.40), 150 mM NaCl, 10 mM EDTA, 5 mM EGTA, 1% TritonX-100™, 0.5% Igepal CA-630, 0.025% NaN3 and protease inhibitor cocktail (Sigma™). Cell debris was removed by centrifugation at 20,000×g for 10 minutes. The protein concentration in supernatant was determined using the MicroBCA™ method (Pierce™, Rockford, Ill.). Proteins in supernatant were mixed with protein sample loading buffer (final concentration: 60 mM Tris-HCl (pH 6.80), 2% SDS, 10% glycerol, 1.5% β-mercaptoethanol, 0.002% bromophenol blue) and size fractioned by 10% of SDS-polyacrylamide gel. After proteins were transferred onto nitrocellulose membrane by iBlot™ (Invitrogen Life Technologies™), non-specific binding were blocked with phosphate buffer saline twenty 20 (PBS-T) containing 5% skim milk for 1 hour. The membrane was then incubated with primary antibody overnight. After incubation with a secondary antibody for 1 hour, protein bands were visualized by an enhanced chemiluminescence (ECL™) detection system (Santa Cruz Biotechnology™, Santa Cruz, Calif.). The primary antibodies used in this study were: mouse monoclonal anti-human MMP-1 (R&D Systems™, Minneapolis, Minn.), mouse monoclonal anti-human MMP-3 (R&D System™), rabbit monoclonal anti-human MMP-2 (Epitomics™, Burlingame, Calif.), rabbit polyclonal anti-phospho-MEK1/2 (Ser217/221™) (Cell Signaling Technology™, Danvers, Mass.), rabbit polyclonal anti-phospho-p44/42 MAPK (Thr202/Tyr204) (Cell Signaling Technology™), monoclonal anti-β-actin (Sigma™), and mouse anti-type-1 procollagen (Developmental Studies Hybridoma Bank™, Iowa City, Iowa). The secondary antibodies were either goat anti-mouse IgG (H+L) HPR conjugate or goat anti-rabbit IgG (H+L) HPR conjugate (Bio-rad Laboratory™ (Mississauga, ON, Canada). Secondary antibodies were used at a concentration of 1:3000.

splenocytes = assay: ConA-induced splenocyte proliferation; type: cell-based; details: for reduction in conA-induced splenocyte proliferation: 100 and 150 μg/ml
fibronectin = assay: Fibronectin mRNA in human dermal fibroblasts, real-time PCR; type: cell-based; details: various concentration
MMP-3 = MMP-3 expression in human dermal fibroblasts, Western blot; type: cell-based
Method: Cells were then harvested by trypsinization and western blot analysis was performed.
(§1) Cell debris was removed by centrifugation at 20,000×g for 10 minutes. The protein concentration in supernatant was determined using the MicroBCA™ method (Pierce™, Rockford, Ill.). Proteins in supernatant were mixed with protein sample loading buffer (final concentration: 60 mM Tris-HCl (pH 6.80), 2% SDS, 10% glycerol, 1.5% β-mercaptoethanol, 0.002% bromophenol blue) and size fractioned by 10% of SDS-polyacrylamide gel. After proteins were transferred onto nitrocellulose membrane by iBlot™ (Invitrogen Life Technologies™), non-specific binding were blocked with phosphate buffer saline twenty 20 (PBS-T) containing 5% skim milk for 1 hour. The membrane was then incubated with primary antibody overnight. After incubation with a secondary antibody for 1 hour, protein bands were visualized by an enhanced chemiluminescence (ECL™) detection system (Santa Cruz Biotechnology™, Santa Cruz, Calif.). […] The secondary antibodies were either goat anti-mouse IgG (H+L) HPR conjugate or goat anti-rabbit IgG (H+L) HPR conjugate (Bio-rad Laboratory™ (Mississauga, ON, Canada). Secondary antibodies were used at a concentration of 1:3000.

type 1 procollagen = assay: Type 1 procollagen expression in dermal fibroblasts, Western blot; type: cell-based, human; details: kynurenine analogues/metabolites, FIG. 10 bottom
Method: as §1

[2] = kynurenine isoforms, 50 μg/ml, 48 hours

N#CC(=C(/N)Sc1ccccc1N)/C(C#N)=C(\N)Sc1ccccc1N [U0126]
effect on up-regulation of MMP-1 expression by kynurenine ([1]; to M and 30 μM of U0126): significantly reduced

COc1cccc(-c2cc(=O)c3ccccc3o2)c1N [PD98059]
effect on kynurenine-stimulated MMP-1 expression ([1]; various concentration of PD98059, dose-dependent): effectively prevented

N[C@@H](Cc1c[nH]c2ccccc12)C(=O)O [tryptophan, reference compound]
MMP-1 expression, presence of tryptophan versus tryptophan-depleted media (MMP-1; 25 μg/ml tryptophan, 48 hrs): no significant difference | MMP-1 expression (MMP-1; various concentration of tryptophan, 48 hours): failed to increase

Nc1ccccc1C(=O)C[C@@H](N)C(=O)O [D-kynurenine]
MMP-1 expression (MMP-1; [2]): increase | reduction in conA-induced splenocyte proliferation (splenocytes; after 48 hours): about 2 fold | reduction in conA-induced splenocyte proliferation (splenocytes; after 96 hours): ~5 fold

Nc1ccccc1C(=O)C[C@H](N)C(=O)O [L-kynurenine]
activity on MMP-1 expression compared with the other isoforms (MMP-1; 50 μg/ml, 48 hours): more activity compared to other two isoforms | MMP-1 expression (MMP-1; [2]): increase | fibronectin expression (mRNA) (fibronectin): capable of down-regulating | reduction in conA-induced splenocyte proliferation (splenocytes; after 48 hours): about 2 fold | reduction in conA-induced splenocyte proliferation (splenocytes; after 96 hours): ~5 fold

O=C(O)c1cc(O)c2cccc(O)c2n1 [xanthurenic acid]
MMP-1 induction (general statement) (MMP-1): induce | MMP-3 induction (general statement) (MMP-3): induce | expression of type 1 procollagen (type 1 procollagen): effective at inhibiting

O=C(O)c1cc(=O)c2ccccc2[nH]1 [kynurenic acid]
MMP-1 induction (general statement) (MMP-1): induce | MMP1 protein expression 48 hours after treatment removal (MMP-1; 100 μg/ml for 48 hours, then 48 hours after removal): remained higher than controls | MMP1 expression versus untreated cells after treatment removal (MMP-1; 100 μg/ml for 48 hours, then another 24 hours after removal): remained significantly higher | lasting effect on expression of MMP-1 relative to Kyn (MMP-1; 100 μg/ml for 48 hours, then removal): longer lasting effect | MMP1 expression (MMP-1; 100 μg/ml, at 48 hours after treatment): marked increase | MMP-3 induction (general statement) (MMP-3): induce | expression of type 1 procollagen (type 1 procollagen): effective at inhibiting | effect on splenocyte proliferation compared with other metabolites (splenocytes): less effect | reduction in conA-induced splenocyte proliferation (splenocytes; after 96 hours): ~5 fold

Reference: patent US9737523B2, “Anti-fibrogenic compounds, methods and uses thereof” (priority 2013, dated 2017)
